# Key:
# [1] = system: antibody RS2845 (raised against Immunogen II); assay: Competitive ELISA: HRP tracer (Tracer 1) versus pregabalin or potential cross-reactants for binding sites of polyclonal antibody RS2845; conditions: for % Cross-Reactivity: % CR = IC50 pregabalin/IC50 CR x 100, cross-reactants assessed at 5 μg/ml, (S) pregabalin as calibrator; for IC50 (standard concentration which produces 50% B/B0): antibody RS2845 coated at 5 μg/ml, Tracer 1, (S) enantiomer of pregabalin as calibrator
# Procedure: The antibody titre is evaluated by coating a microtitre plate (Thermo Fisher Scientific NUNC, 468667) with antibody (125 μl/well) in coating buffer (10 mM Tris pH 8.5) at 37° C. for 2 hours. The plate is then washed 4 times over 10 minutes with working strength mixture of Tris-Buffered Saline and Tween 20 (TBST). 50 μl of sample/standard (pregabalin) is added to the appropriate wells in triplicate, followed by 75 μl of hapten-HRP conjugate and incubated at 25° C. for 1 hour. The plate is then washed and 125 μl of TMB (Randox Laboratories, 4380-15) added to each well and left at room temperature for 20 mins in the dark. The reaction is stopped using 125 μl of 0.2 M sulphuric acid. The absorbances are read at 450 nm with an ELISA microplate reader (BIO-TEK Instruments, Elx800) and the means calculated. Antibody sensitivity can then be determined.
# IgG was extracted from serum from the immunized animal the using ammonium sulphate/caprylic acid precipitation and the purified antibody was immobilised on a 96 well ELISA plate at 5 μg/ml in 10 mM TRIS buffer, pH 8.5 overnight at 4° C. The assay was based on competition for binding sites of a polyclonal antibody between HRP tracer and pregabalin or potential cross-reactants. The plate was washed (×3) with TBST and the calibrator (pregabalin) or potential cross reactants added (50 μl per well), followed by HRP tracer (75 μl/well) to the appropriate wells. The plates were then incubated for 60 minutes at 25° C. They were then subjected to 2 quick wash cycles using TBST, followed by 4×2 minute wash cycles. 125 μL of signal 25 (TMB) was then added to each well for 20 mins at room temperature in the dark. The reaction was stopped by the addition of 125 μl of 0.2 M Sulphuric Acid per well and the plates read immediately at 450 nm. Calibration curves were generated and these were used to determine the sensitivity and specificity of the immunoassay for pregabalin and potential cross-reactants. The data was inputted to a computer program called ‘KC Junior’ (Biotek). […] This program is used to calculate the IC50 values by dividing the 0 ng/ml optical density (OD) value by 2 and obtaining the concentration value from the curve for this OD.
# wherein % CR is the percentage cross-reactivity, IC50 pregabalin is the concentration of pregabalin which causes 50% displacement of signal and IC50 CR is the concentration of potential cross-reactant that causes 50% displacement of signal.
# The antibody (RS2845) used to generate the data in the tables below was raised from Immunogen II (Example 9) and the HRP tracer was prepared as in Example 10 (Tracer 1).
# [2] = in vivo; cited from earlier work
Compound,% Cross-Reactivity [1] [%],further results
CC[C@@H](C(N)=O)N1CCCC1=O [Levetiracetam],<1,–
NC(=O)N1c2ccccc2C=Cc2ccccc21 [Carbamazepine],<1,–
NCCCC(=O)O [Gamma-aminobutyric acid],<1,–
Cc1ccsc1C(=CCCN1CCC[C@@H](C(=O)O)C1)c1sccc1C [Tiagabine],<1,–
"CC(C)CC(CN)CC(=O)O (centres unmarked) [Pregabalin, 3-(aminomethyl)-5-methylhexanoic acid]",100,IC50 (standard concentration which produces 50% B/B0) [1]: 0.266 ng/mL; IC50 (standard concentration which produces 50% B/B0) ([1]; listed as pregabalin): about 0.266 ng/ml; B/B0 ([1]; pregabalin 0.02 ng/ml): 76%; B/B0 ([1]; pregabalin 0.08 ng/ml): 52%; B/B0 ([1]; pregabalin 0.31 ng/ml): 28%; B/B0 ([1]; pregabalin 1.25 ng/ml): 14%; B/B0 ([1]; pregabalin 5.00 ng/ml): 7%; Dose excreted unchanged in the urine [2]: about 98%; Metabolism [2]: negligible metabolism
N[C@@H](CCC(=O)O)C(=O)O [L-Glutamic Acid],<1,–
"CNC[C@H](CC(=O)O)CC(C)C [N-methylpregabalin, N-methyl pregabalin]",<1,–
CC(C)(C)C(O)/C=C/c1ccc2c(c1)OCO2 (centres unmarked) [Stiripentol],<1,–
NCCc1c[nH]c2ccc(O)cc12 [Serotonin],<1,–
NC(=O)OCC(COC(N)=O)c1ccccc1 [Felbamate],<1,–
NCC1(CC(=O)O)CCCCC1 [Gabapentin],<1,–
N[C@H](CCC(=O)O)C(=O)O [D-Glutamic Acid],<1,–
C=CC(N)CCC(=O)O (centres unmarked) [Vigabatrin],<1,–
CCCC(CCC)C(=O)O [Valproic acid],<1,–
"CCC(C)CC(C)N (centres unmarked) [1,3-dimethylamylamine (DMAA), 1,3-dimethylamylamine]",2.2,–
CC1(C)O[C@@H]2[C@@H](CO[C@@]3(COS(N)(=O)=O)OC(C)(C)O[C@@H]23)O1 [Topiramate],<1,–
COC[C@@H](NC(C)=O)C(=O)NCc1ccccc1 [Lacosamide],<1,–

# Reference: patent publication US20160266153A1, “I[…] PREGABALIN” (Randox Laboratories Limited, priority 2015, published 2016)
